According to patent US20230416209A1, “COMPOUNDS AND METHODS TO TARGET GLUCOSE-STIMULATED PHOSPHOHISTIDINE SIGNALING AND ESOPHAGEAL CANCER GROWTH” (Health Research, Inc., priority 2020, published 2023):
Like-named read-outs stand apart in the source and are kept apart here.

Assays:
KYSE70 cells = test: BrdU coupling ELISA of Glc-induced ESCC cell proliferation; type: cell-based; details: Homo sapiens, KYSE-70, serum-free medium containing Glc, BrdU and varied concentrations of inhibitor, read-out: IC^50 on ESCC cell proliferation
Experimental: (§1) A. Top ranked small molecules that bind to FAK H58 site. B. FAK^His58 inhibitors attenuate Glc-induced phosphorylation of FAK H58. In the absence of growth factors, KYSE70 cells were stimulated by Glc with or without FAK^His58 inhibitors (H5). N=3, **: p<0.001 vs vehicle+Glc. C. Dose responses of FAK^His58 inhibitors on proliferation. KYSE70 cells were incubated in serum-free medium containing Glc, BrdU and varied concentrations of FAK^His58 inhibitors (H5). BrdU coupling ELISA was performed to assess the relative levels of newly synthesized BrdU-DNA. IC^50 values were calculated.
(§2) Reproducible test: BrdU coupling ELISA, pHis-FAK assays and IP/IB were performed to confirm the FAK H58 hit inhibition of ESCC proliferation, phosphorylation of FAK on H58 and FAK-RB1 interaction (FIGS. 2-4).

TE9 = test: WST-1 proliferation assay, TE9 cells; type: cell-based; details: Homo sapiens, TE-9; medium containing 5% FBS, 48 hr, WST-1 assay; read-out: IC^50 of H5 on ESCC cells, TE9
TE10 cells = test: WST-1 proliferation assay, TE10 cells; type: cell-based; details: Homo sapiens, TE-10; medium containing 5% FBS, 48 hr, WST-1 assay; read-out: IC^50, TE10
KYSE70 = test: WST-1 proliferation assay, KYSE70 cells; type: cell-based; details: Homo sapiens, KYSE-70; medium containing 5% FBS, 48 hr, WST-1 assay; read-out: IC^50 of H5 on ESCC cells, KYSE70
ESCC (KYSE520) cells = test: WST1 analysis of cisplatin combined with FAK H58 inhibitor, KYSE520; type: cell-based
Experimental: ESCC (KYSE520) cells were seeded on a 96-well plate at a density of 2000 cells/well in complete medium. The next day, medium was replaced with the serum-reduced medium (5% FBS) containing 0-80 μM of cisplatin and 5 fixed doses of H5 (0 μM, 5 μM, 10 μM, 20 μM, or 40 μM). The cells were kept for 72 hrs. WST1 analysis, a MTT-like assay, was performed to assess proliferation. Log (inhibition) vs. response—variable (four parameters). Prism was utilized to find the best-fit value and to calculate a complete confidence interval.
Synergistic effects of the chemotherapy drug combined with FAK H58 inhibitor. Chemotherapies are commonly used treatments for patients with ESCC. It was sought to determine whether the inhibition of glucose-induced G1-to-S phase transition of the cell cycle coupled with the interruption of DNA synthesis by chemotherapeutic agents is synergistic. ESCC cells (KYSE70 and KYSE520) were cultured in the medium containing reduced FBS (5%), 0-80 μM of cisplatin and 5 fixed doses of H5 (0, 5, 10, 20, or 40 μM) for 72 hr. Cell proliferation was assessed using WST1, a MTT-like reagent.
To assess the synergistic effects of cisplatin coupled with the FAK H58 inhibitor derivative (H5A), ESCC cells (KYSE70 and KYSE520) were treated with 0-80 μM of cisplatin and 5 fixed doses of H5 Å for 72 hr. The H5 derivative H5 Å enhanced the inhibitory effects of cisplatin in KYSE70 from 4 to 2 μM (FIG. 7) and in KYSE520 from 27 to 24 μM (FIG. 8), respectively.

FAK^pHis58 = test: Glc-induced phosphorylation of FAK H58 in KYSE70 cells; type: cell-based; details: KYSE70 cells stimulated by Glc in the absence of growth factors
Experimental: as §1, §2

NME1 (Homo sapiens) = test: NME1-catalyzed histidine phosphorylation of recombinant FAK (pHis-rFAK ELISA); type: biochemical; details: purified NME1 and rFAK, 0-1 μM, 3 hr
NME1 (Homo sapiens), sequence (Q05397 whole entry): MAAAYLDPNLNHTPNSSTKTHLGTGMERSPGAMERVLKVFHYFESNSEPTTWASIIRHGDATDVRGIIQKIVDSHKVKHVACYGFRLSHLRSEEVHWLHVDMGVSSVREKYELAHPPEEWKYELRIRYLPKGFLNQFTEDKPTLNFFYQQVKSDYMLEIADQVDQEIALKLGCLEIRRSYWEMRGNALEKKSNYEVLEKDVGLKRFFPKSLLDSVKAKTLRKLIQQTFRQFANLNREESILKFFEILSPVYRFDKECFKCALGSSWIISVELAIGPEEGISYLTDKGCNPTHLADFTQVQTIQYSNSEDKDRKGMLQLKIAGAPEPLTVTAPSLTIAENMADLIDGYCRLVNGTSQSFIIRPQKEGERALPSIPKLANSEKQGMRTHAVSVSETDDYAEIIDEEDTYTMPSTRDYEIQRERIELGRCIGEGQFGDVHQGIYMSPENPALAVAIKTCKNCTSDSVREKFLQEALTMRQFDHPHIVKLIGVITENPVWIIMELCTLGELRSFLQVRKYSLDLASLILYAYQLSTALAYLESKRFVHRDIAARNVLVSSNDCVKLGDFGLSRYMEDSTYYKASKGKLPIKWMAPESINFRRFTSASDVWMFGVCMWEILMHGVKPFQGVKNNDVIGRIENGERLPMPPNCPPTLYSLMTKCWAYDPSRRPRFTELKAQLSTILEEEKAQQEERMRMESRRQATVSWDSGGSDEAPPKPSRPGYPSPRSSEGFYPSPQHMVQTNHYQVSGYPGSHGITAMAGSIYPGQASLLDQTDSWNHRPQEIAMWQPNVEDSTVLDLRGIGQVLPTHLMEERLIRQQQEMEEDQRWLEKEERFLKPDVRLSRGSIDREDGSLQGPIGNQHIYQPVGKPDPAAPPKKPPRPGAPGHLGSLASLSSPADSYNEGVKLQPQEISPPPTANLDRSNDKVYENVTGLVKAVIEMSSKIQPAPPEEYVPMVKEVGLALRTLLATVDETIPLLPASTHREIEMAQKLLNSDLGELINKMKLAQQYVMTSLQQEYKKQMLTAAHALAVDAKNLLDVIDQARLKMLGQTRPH
Source text: A. Assessment of Glc-altered NM1 phosphorylation of pHis-FAK. NME1 was pulldown with an anti-NME1 antibody from KYSE70 cells +/−Glc stimulation and added to the anti-pHis antibody (rabbit)-coated wells. The anti-FAK (mouse) was used to detect the pHis-FAK on the plate. N=3, *: p<0.05, ***: p<0.001 and ****: p<0.0001 vs No NME1 or NME1 (−Glc). B. Glc increases NME1 in xenograft lysates derived from fasting mice +/−Glc. C. H5 attenuates NME1-increased levels of pHis-rFAk. Purified NMR1 and recombinant FAK (rFAK) were incubated in the NME kinase buffer in the presence of varied concentrations (0-1 μM) of vehicle of H5 for 3 hr. The relative levels of pHis-rFAK were assessed using ELISA.

FAK-RB1 interaction = FAK-RB1 interaction (Homo sapiens, UniProt Q05397); test: FAK-RB1 interaction assay (rFAK/rRB1 co-IP ELISA); type: biochemical; details: rFAK with 0-10 μM for 1 hr, then rRB1 3 hr
FAK-RB1 interaction, sequence (Q05397 whole entry): as above
Experimental: Then, rRB1 was added to mixture and kept at room temperature for 3 hr. The mixture was added to the anti-FAK antibody-coated plated. After extensive washing, the co-IPed rRB1 was detected using an anti-RB1 antibody.

ESCC (KYSE70) cells = test: WST1 analysis of cisplatin combined with FAK H58 inhibitor, KYSE70; type: cell-based; details: KYSE70, 72 hr
Experimental: ESCC (KYSE70) cells were seeded on a 96-well plate at a density of 2000 cells/well in complete medium. The next day, medium was replaced with the serum-reduced medium (5% FBS) containing 0-80 μM of cisplatin and 5 fixed doses of H5 (0 μM, 5 μM, 10 μM, 20 μM, or 40 μM). The cells were kept for 72 hrs. WST1 analysis, a MTT-like assay, was performed to assess proliferation. Log (inhibition) vs. response-variable (four parameters). Prism was utilized to find the best-fit value and to calculate a complete confidence interval. […] ESCC (KYSE70) cells were seeded on a 96-well plate at a density of 2000 cells/well in complete medium. The next day, medium was replaced with the serum-reduced medium (5% FBS) containing 0-80 μM of cisplatin and 5 fixed doses of H5 (0 μM, 5 μM, 10 μM, 20 μM, or 40 μM). The cells were kept for 72 hrs. WST1 analysis, a MTT-like assay, was performed to assess proliferation. Log (inhibition) vs. response-variable (four parameters). Prism was utilized to find the best-fit value and to calculate a complete confidence interval. Synergistic effects of the chemotherapy drug combined with FAK H58 inhibitor. Chemotherapies are commonly used treatments for patients with ESCC. […] Cell proliferation was assessed using WST1, a MTT-like reagent. […]

| Effect on NME1-catalyzed FAK^pHis (pHis-rFAK levels) (NME1 (Homo sapiens)) | Effect on FAK-RB1 interaction (FAK-RB1 interaction) | SMILES | IC50 (KYSE70 cells) [µM] | IC50 (TE9) [µM] | IC50 (TE10 cells) [µM] | IC50 (KYSE70) [µM] | Effect of combination with cisplatin on proliferation (ESCC (KYSE520) cells; KYSE520, 72 hr) | Effect on Glc-induced FAK^pHis58 (FAK^pHis58) | IC50 (ESCC (KYSE70) cells; before adding H5A, read-out: IC50 of cisplatin (inhibitory effects)) [µM] | IC50 (ESCC (KYSE70) cells; fixed doses of H5A, read-out: IC50 of cisplatin combined with H5A) [µM] | IC50 (ESCC (KYSE520) cells; KYSE520, 5% FBS, 72 hr, before adding H5, read-out: IC50 of cisplatin) [µM] | IC50 (ESCC (KYSE520) cells; KYSE520, 5% FBS, 72 hr, fixed doses of H5 (5-40 μM), read-out: IC50 of cisplatin combined with H5) [µM] | IC50 (ESCC (KYSE520) cells; KYSE520, 72 hr, before adding H5A, read-out: IC50 of cisplatin (inhibitory effects)) [µM] | IC50 (ESCC (KYSE520) cells; KYSE520, 72 hr, fixed doses of H5A, read-out: IC50 of cisplatin combined with H5A) [µM] |
| --- | --- | --- | --- | --- | --- | --- | --- | --- | --- | --- | --- | --- | --- | --- |
| attenuates NME1-catalyzed FAK^pHis | prevents Glc-induced FAK-RB1 interaction | O=c1nc(-c2ccccc2)c(-c2ccccc2)n[nH]1 [H5, 5,6-diphenyl-1,2,4-triazin-3(2H)-one] | 9 | 0.38 | 0.088 | 5.7 | enhanced the effects of cisplatin | decreased Glc-induced FAK^pHis58 | – | – | – | – | – | – |
| – | – | CCOC(=O)CSc1nnc(-c2ccccc2)c(-c2ccccc2)n1 [H5B, ethyl [(5,6-diphenyl-1,2,4-triazin-3-yl)thio]acetate] | – | – | 0.065 | – | – | – | – | – | – | – | – | – |
| – | – | N.N.[Cl][Pt][Cl] [cisplatin] | – | – | – | – | – | – | 4 | 2 | 31 | 23 | 27 | 24 |
